In patent US6989371B1, “Bombesin analogs for treatment of cancer” (Dabur Research Foundation, priority 1996, dated 2006):
Non-standard residues stand in square brackets, D forms with d. Residues, ends and D or L forms follow the SMILES beside them. *: point of attachment. Octanoyl = CCCCCCCC(=O)*; Aib = CC(C)(N)C(=O)O

Experiments:
[1] = system: MOLT-4 (leukemia); test: MTT cytotoxicity assay, 72 hours (Example 13); format: cell-based, human
Procedure: (§1) The cytotoxic activity of other synthesized bombesin analogs was tested on eight human tumor cell lines namely HT-29, SW620, PTC (all colon), PA-1 (ovary), A549 (lung), HBL100(breast), MOLT-4 (leukemia) and DU145 (prostate). The tumor cells were collected at exponential growth phase and resuspended in medium (1.5×10^6) cells/ml in RPMI 1640 containing 10% FBS). 150 μl of medium was added to the wells of a 96-well tissue culture plate (Nunc, Denmark) followed by 30 μl of cell suspension. The plate was left in incubator (37° C., 5% CO2 overnight. 20 μl of the peptide (10^−7×10^×10M concentration) was added to marked wells of the 96-well plate. Each concentration was plated in cells served as blanks. A total volume of 200 μl was ensured in each well and plate was left in incubator (37° C., 5% CO2). After 72 hours of incubation an MTT assay was performed and percentage cytotoxicity was calculated with respect to control cells. Following tables show the cytotoxicity achieved on various cell lines at different concentrations.

[2] = system: A549 (lung); test: MTT cytotoxicity assay, 72 hours (Example 13); format: cell-based, human
Procedure: as §1

[3] = system: HBL100 (breast); test: MTT cytotoxicity assay, 72 hours (Example 13); format: cell-based, human; details: HBL
Procedure: as §1

[4] = system: PTC (colon); test: MTT cytotoxicity assay, 72 hours (Example 13); format: cell-based, human
Procedure: as §1

[5] = system: DU145 (prostate); test: MTT cytotoxicity assay, 72 hours (Example 13); format: cell-based, human
Procedure: as §1

[6] = system: HT-29 (colon); test: MTT cytotoxicity assay, 72 hours (Example 13); format: cell-based, human
Procedure: as §1

[7] = system: PA-1 (ovary); test: MTT cytotoxicity assay, 72 hours (Example 13); format: cell-based, human
Procedure: as §1

[8] = system: SW620 (colon); test: MTT cytotoxicity assay, 72 hours (Example 13); format: cell-based, human
Procedure: as §1

[9] = system: PTC (colon); test: MTT cytotoxicity assay, 48 hours (Example 14); format: cell-based, human
Procedure: (§2) The cytotoxic effect of peptide sequences SEQ ID NO: 9, SEQ ID NO: 10, SEQ ID NO: 11 and SEQ ID NO: 12, were studied by MTT assay which is based on the principle of uptake of MTT[3-[4,5-dimethylthiazol-2-yl]-2,5-diphenyl tetrazolium bromide], a tetrazolium salt by the metabolically active cells where it is metabolized by active mitochondria into a blue colored formazan product which can be read spectrophotometrically. Tumor cells KB (oral squamous). HuTu80 (Stomach), PTC and SW620 (colon), U87MG (Glioblastoma), HBL 100. (Breast), HeP2 (laryngeal) and L132 (Lung) were incubated with the peptide analogs for 48 hours at 37° C. in a 96-well culture plate, followed by the addition of 100 μl MTT and further incubation of 1 hour. The formazon crystals formed inside the cells were dissolved with a detergent comprising 10% Sodium dodecyl sulfate and 0.01 N HCl and optical density read on a multiscan ELISA reader. The optical density was directly proportional to the number of proliferating and metabolically active cells.

[10] = system: HBL 100 (Breast); test: MTT cytotoxicity assay, 48 hours (Example 14); format: cell-based, human
Procedure: as §2

[11] = system: KB (oral squamous); test: MTT cytotoxicity assay, 48 hours (Example 14); format: cell-based, human
Procedure: as §2

[12] = system: HuTu80 (Stomach); test: MTT cytotoxicity assay, 48 hours (Example 14); format: cell-based, human
Procedure: as §2

[13] = system: SW620 (colon); test: MTT cytotoxicity assay, 48 hours (Example 14); format: cell-based, human
Procedure: as §2

[14] = system: U87MG (Glioblastoma); test: MTT cytotoxicity assay, 48 hours (Example 14); format: cell-based
Procedure: as §2

[15] = system: L132 (Lung); test: MTT cytotoxicity assay, 48 hours (Example 14); format: cell-based
Procedure: as §2

[16] = system: HeP2 (laryngeal); test: MTT cytotoxicity assay, 48 hours (Example 14); format: cell-based
Procedure: as §2

CC(C)C[C@H](NC(=O)[C@H](Cc1c[nH]cn1)NC(=O)CNC(=O)[C@@H](NC(=O)C(C)(C)NC(=O)[C@H](Cc1c[nH]c2ccccc12)NC(=O)[C@H](CCC(N)=O)NC(=O)[C@H](N)Cc1ccccc1)C(C)C)C(N)=O [SEQ ID: 4, D-Phe-Gln-Trp-Aib-Val-Gly-His-Leu-NH2] (H-[dF]QW[Aib]VGHL-NH2; N-terminus assumed)
Percent Cytotoxicity ([1]; MOLT4, 1 nM): 19.3 ± 1.8% | Percent Cytotoxicity ([1]; MOLT4, 10 nM): 28.7 ± 4.2% | Percent Cytotoxicity ([1]; MOLT4, 100 nM): 16.2 ± 0.6% | Percent Cytotoxicity ([1]; MOLT4, 100 PM): 28.5 ± 4.8% | Percent Cytotoxicity ([2]; A549, 1 nM): 22.7 ± 2.9% | Percent Cytotoxicity ([2]; A549, 10 nM): 20.6 ± 1.9% | Percent Cytotoxicity ([2]; A549, 100 nM): 20.0 ± 2.2% | Percent Cytotoxicity ([2]; A549, 100 PM): 20.7 ± 4.2% | Percent Cytotoxicity ([3]; 1 nM): 30.6 ± 4.2% | Percent Cytotoxicity ([3]; 10 nM): 33.2 ± 5.2% | Percent Cytotoxicity ([3]; 100 nM): 25.0 ± 3.1% | Percent Cytotoxicity ([3]; 100 PM): 33.0 ± 3.6% | Percent Cytotoxicity ([4]; 1 nM): 8.7 ± 1.5% | Percent Cytotoxicity ([4]; 10 nM): 2.1 ± 0.2% | Percent Cytotoxicity ([4]; 100 nM): 9.8 ± 1.7% | Percent Cytotoxicity ([4]; 100 PM): 14.9 ± 1.1% | Percent Cytotoxicity ([5]; DU145, 1 nM): 22.8 ± 4.1% | Percent Cytotoxicity ([5]; DU145, 10 nM): 23.4 ± 3.3% | Percent Cytotoxicity ([5]; DU145, 100 nM): 24.9 ± 3.2% | Percent Cytotoxicity ([5]; DU145, 100 PM): 23.2 ± 3.7% | Percent Cytotoxicity ([6]; HT29, 1 nM): 39.6 ± 4.3% | Percent Cytotoxicity ([6]; HT29, 10 nM): 38.9 ± 7.3% | Percent Cytotoxicity ([6]; HT29, 100 nM): 38.6 ± 5.3% | Percent Cytotoxicity ([6]; HT29, 100 PM): 43.3 ± 4.4% | Percent Cytotoxicity ([7]; PA-1, 1 nM): 16.2 ± 2.9% | Percent Cytotoxicity ([7]; PA-1, 10 nM): 4.3 ± 0.2% | Percent Cytotoxicity ([7]; PA-1, 100 nM): 2.3 ± 2.9% | Percent Cytotoxicity ([7]; PA-1, 100 PM): 12.6 ± 2.9% | Percent Cytotoxicity ([8]; SW620, 1 nM): 27.8 ± 2.8% | Percent Cytotoxicity ([8]; SW620, 10 nM): 23.2 ± 2.0% | Percent Cytotoxicity ([8]; SW620, 100 nM): 34.3 ± 4.2% | Percent Cytotoxicity ([8]; SW620, 100 PM): 30.4 ± 3.2%

CC(C)C[C@H](NC(=O)[C@H](Cc1c[nH]cn1)NC(=O)C(C)(C)NC(=O)[C@@H](NC(=O)[C@H](C)NC(=O)[C@@H](Cc1c[nH]c2ccccc12)NC(=O)[C@H](CCC(N)=O)NC(=O)[C@H](N)Cc1ccccc1)C(C)C)C(N)=O [SEQ ID: 5, D-Phe-Gln-D-Trp-Ala-Val-Aib-His-Leu-NH2] (H-[dF]Q[dW]AV[Aib]HL-NH2; N-terminus assumed)
Percent Cytotoxicity ([1]; MOLT4, 1 nM): 6.4 ± 0.2% | Percent Cytotoxicity ([1]; MOLT4, 10 nM): 4.3 ± 0.6% | Percent Cytotoxicity ([1]; MOLT4, 100 nM): NIL | Percent Cytotoxicity ([1]; MOLT4, 100 PM): 8.7 ± 0.6% | Percent Cytotoxicity ([2]; A549, 1 nM): 20.2 ± 4.2% | Percent Cytotoxicity ([2]; A549, 10 nM): 22.2 ± 3.1% | Percent Cytotoxicity ([2]; A549, 100 nM): 30.3 ± 4.3% | Percent Cytotoxicity ([2]; A549, 100 PM): 25.2 ± 5.6% | Percent Cytotoxicity ([3]; 1 nM): 31.6 ± 5.3% | Percent Cytotoxicity ([3]; 10 nM): 16.7 ± 3.6% | Percent Cytotoxicity ([3]; 100 nM): 19.4 ± 4.5% | Percent Cytotoxicity ([3]; 100 PM): 19.3 ± 2.7% | Percent Cytotoxicity ([4]; 1 nM): 23.0 ± 4.2% | Percent Cytotoxicity ([4]; 10 nM): 15.9 ± 2.4% | Percent Cytotoxicity ([4]; 100 nM): 20.4 ± 4.2% | Percent Cytotoxicity ([4]; 100 PM): 13.9 ± 2.2% | Percent Cytotoxicity ([5]; DU145, 1 nM): 10.6 ± 0.9% | Percent Cytotoxicity ([5]; DU145, 10 nM): 22.0 ± 3.4% | Percent Cytotoxicity ([5]; DU145, 100 nM): 32.3 ± 3.8% | Percent Cytotoxicity ([5]; DU145, 100 PM): 29.3 ± 2.9% | Percent Cytotoxicity ([6]; HT29, 1 nM): 27.9 ± 2.9% | Percent Cytotoxicity ([6]; HT29, 10 nM): 44.4 ± 4.0% | Percent Cytotoxicity ([6]; HT29, 100 nM): 35.7 ± 2.8% | Percent Cytotoxicity ([6]; HT29, 100 PM): 42.0 ± 2.0% | Percent Cytotoxicity ([7]; PA-1, 1 nM): 16.0 ± 3.9% | Percent Cytotoxicity ([7]; PA-1, 10 nM): 20.9 ± 5.3% | Percent Cytotoxicity ([7]; PA-1, 100 nM): 8.8 ± 1.9% | Percent Cytotoxicity ([7]; PA-1, 100 PM): 25.6 ± 6.3% | Percent Cytotoxicity ([8]; SW620, 1 nM): 29.7 ± 4.2% | Percent Cytotoxicity ([8]; SW620, 10 nM): 30.1 ± 4.0% | Percent Cytotoxicity ([8]; SW620, 100 nM): 25.6 ± 4.2% | Percent Cytotoxicity ([8]; SW620, 100 PM): 38.0 ± 3.8%

CCCCCCCC(=O)N[C@H](Cc1ccccc1)C(=O)N[C@@H](CCC(N)=O)C(=O)N[C@@H](Cc1c[nH]c2ccccc12)C(=O)N[C@@H](C)C(=O)N[C@H](C(=O)NC(C)(C)C(=O)N[C@@H](Cc1c[nH]cn1)C(=O)N[C@@H](CC(C)C)C(N)=O)C(C)C [SEQ ID: 12, Octanoyl-D-Phe-Gln-Trp-Ala-Val-Aib-His-Leu-NH2] (Octanoyl-[dF]QWAV[Aib]HL-NH2)
Percentage cytotoxicity ([9]; 10 pM): 19.5 ± 0.8% | Percentage cytotoxicity ([9]; 100 pM): 18.6 ± 2.4% | Percentage cytotoxicity ([9]; 1 nM): 30.1 ± 4.1% | Percentage cytotoxicity ([9]; 10 nM): 20.7 ± 3.8% | Percentage cytotoxicity ([9]; 100 nM): 16.1 ± 2.5% | Percentage cytotoxicity ([9]; 1 μM): 14.4 ± 2.7% | Percentage cytotoxicity ([10]; HBL100, 10 pM): 29.0 ± 3.8% | Percentage cytotoxicity ([10]; HBL100, 100 pM): 34.7 ± 2.8% | Percentage cytotoxicity ([10]; HBL100, 1 nM): 29.6 ± 0.4% | Percentage cytotoxicity ([10]; HBL100, 10 nM): 27.7 ± 1.5% | Percentage cytotoxicity ([10]; HBL100, 100 nM): 23.6 ± 2.7% | Percentage cytotoxicity ([10]; HBL100, 1 μM): 11.8 ± 1.1% | Percentage cytotoxicity ([11]; 10 pM): 19.3 ± 2.9% | Percentage cytotoxicity ([11]; 100 pM): 19.4 ± 2.9% | Percentage cytotoxicity ([11]; 1 nM): 26.6 ± 4.9% | Percentage cytotoxicity ([11]; 10 nM): 18.6 ± 2.1% | Percentage cytotoxicity ([11]; 100 nM): 11.1 ± 3.1% | Percentage cytotoxicity ([11]; 1 μM): 12.4 ± 1.2% | Percentage cytotoxicity ([12]; HuTu80, 10 pM): 8.3 ± 1.1% | Percentage cytotoxicity ([12]; HuTu80, 100 pM): 13.0 ± 0.7% | Percentage cytotoxicity ([12]; HuTu80, 1 nM): 33.1 ± 4.8% | Percentage cytotoxicity ([12]; HuTu80, 10 nM): 23.4 ± 0.5% | Percentage cytotoxicity ([12]; HuTu80, 100 nM): 21.8 ± 2.1% | Percentage cytotoxicity ([12]; HuTu80, 1 μM): 20.0 ± 3.9% | Percentage cytotoxicity ([13]; SW620, 10 pM): 34.8 ± 0.4% | Percentage cytotoxicity ([13]; SW620, 100 pM): 38.4 ± 2.8% | Percentage cytotoxicity ([13]; SW620, 1 nM): 32.2 ± 2.6% | Percentage cytotoxicity ([13]; SW620, 10 nM): 36.1 ± 1.9% | Percentage cytotoxicity ([13]; SW620, 100 nM): 25.3 ± 0.6% | Percentage cytotoxicity ([13]; SW620, 1 μM): 22.6 ± 1.1% | Percentage cytotoxicity ([14]; 10 pM): 13.1 ± 2.2% | Percentage cytotoxicity ([14]; 100 pM): 22.1 ± 3.8% | Percentage cytotoxicity ([14]; 1 nM): 28.3 ± 1.9% | Percentage cytotoxicity ([14]; 10 nM): 27.5 ± 2.9% | Percentage cytotoxicity ([14]; 100 nM): 13.1 ± 2.3% | Percentage cytotoxicity ([14]; 1 μM): 15.4 ± 3.1% | Percentage cytotoxicity ([15]; L132, 10 pM): 0.0 ± 0.0% | Percentage cytotoxicity ([15]; L132, 100 pM): 23.1 ± 0.7% | Percentage cytotoxicity ([15]; L132, 1 nM): 26.7 ± 0.4% | Percentage cytotoxicity ([15]; L132, 10 nM): 26.4 ± 0.3% | Percentage cytotoxicity ([15]; L132, 100 nM): 22.0 ± 0.1% | Percentage cytotoxicity ([15]; L132, 1 μM): 22.2 ± 0.2% | Percentage cytotoxicity ([16]; HeP2, 10 pM): 10.0 ± 0.0% | Percentage cytotoxicity ([16]; HeP2, 100 pM): 24.4 ± 0.1% | Percentage cytotoxicity ([16]; HeP2, 1 nM): 28.9 ± 0.5% | Percentage cytotoxicity ([16]; HeP2, 10 nM): 29.2 ± 1.1% | Percentage cytotoxicity ([16]; HeP2, 100 nM): 25.6 ± 0.4% | Percentage cytotoxicity ([16]; HeP2, 1 μM): 28.7 ± 0.8%
